Assay [1] has as its system α1 subunit of T-type calcium channels. As to the kind of experiment: Fluorescence based assay for T-type modulators (FLUO-4, gramicidin/NMDG, KCl pulse). Type of assay: cell-based. The settings on record: transfected HEK 293 cells; various concentrations; FIG. 5; positive control. The protocol:
Mammalian cell lines stably expressing α1 subunit of T-type calcium channels were constructed by transfecting α1 calcium channel subunit DNA into HEK 293 cells and selecting for antibiotic resistance. Briefly, a full-length T-type calcium channel α1 subunit was subcloned into an expression vector with a selectable marker, pcDNA3 (InvitroGen, San Diego, Calif.). The vector was transfected into HEK 293 cells by lipofection and the cells incubated for 16-20 hours. The cells were fed nonselective medium and incubated for an additional 24 hours, then trypsinized and plated at low density in selective medium supplemented with Geneticin (G418) at a concentration of between 600 to 800 μg/ml. […] After growing up each isolated colony to confluency to establish cell lines, the expression of T-type calcium channels was determined by Northern and Southern blotting. […]
Each well was then treated with fluorescence dye solution containing a mixture of 50 μg FLUO-4 AM (Molecular Probes, F-14201); 45.5 μl DMSO; 45.5 μl 20% Pluronic F-127 (Molecular Probes, P-6867) and 4 ml MKH buffer. […]
To each well, EB buffer was added also containing DMSO at a concentration equal to that of the test compounds for negative controls, the known blocker penfluoridol at 2.5 μM for positive control, and test compounds (diluted in DMSO) for experimental wells. […] Background fluorescence was read in all wells. […]

Assay [2] relates to membrane potential of cells. The assay is described as follows: Membrane potential of cells with gramicidin, NMDG substituted for external sodium (FIG. 3). The class given is cell-based. Particulars: 5 μg/ml gramicidin, absence of external sodium (NMDG). The protocol:
As shown, when 5 μg/ml gramicidin is added in the absence of external sodium, the membrane potential decreases to about −70 mV.

In the case of `OC1(c2ccc(Cl)c(C(F)(F)F)c2)CCN(CCCC(c2ccc(F)cc2)c2ccc(F)cc2)CC1` [penfluoridol], the “blocking calcium ion transport (fluorescence)” value in assay [1] is “successful in blocking calcium ion transport”.

As to gramicidin, the membrane potential entry in assay [2] was “about −70 mV”.

The values above are taken from patent publication US7270949B2, “Fluorescence based T-type channel assay” (Neuromed Pharmaceuticals Ltd., priority 2003, dated 2007).
